Laboratory results published in publication PMC3516848 (Journal of medicinal chemistry, 2011).

Biological target: T1, recombinant PfA-M1 (Plasmodium falciparum, UniProt O96935)
T1 sequence (O96935 1-1085): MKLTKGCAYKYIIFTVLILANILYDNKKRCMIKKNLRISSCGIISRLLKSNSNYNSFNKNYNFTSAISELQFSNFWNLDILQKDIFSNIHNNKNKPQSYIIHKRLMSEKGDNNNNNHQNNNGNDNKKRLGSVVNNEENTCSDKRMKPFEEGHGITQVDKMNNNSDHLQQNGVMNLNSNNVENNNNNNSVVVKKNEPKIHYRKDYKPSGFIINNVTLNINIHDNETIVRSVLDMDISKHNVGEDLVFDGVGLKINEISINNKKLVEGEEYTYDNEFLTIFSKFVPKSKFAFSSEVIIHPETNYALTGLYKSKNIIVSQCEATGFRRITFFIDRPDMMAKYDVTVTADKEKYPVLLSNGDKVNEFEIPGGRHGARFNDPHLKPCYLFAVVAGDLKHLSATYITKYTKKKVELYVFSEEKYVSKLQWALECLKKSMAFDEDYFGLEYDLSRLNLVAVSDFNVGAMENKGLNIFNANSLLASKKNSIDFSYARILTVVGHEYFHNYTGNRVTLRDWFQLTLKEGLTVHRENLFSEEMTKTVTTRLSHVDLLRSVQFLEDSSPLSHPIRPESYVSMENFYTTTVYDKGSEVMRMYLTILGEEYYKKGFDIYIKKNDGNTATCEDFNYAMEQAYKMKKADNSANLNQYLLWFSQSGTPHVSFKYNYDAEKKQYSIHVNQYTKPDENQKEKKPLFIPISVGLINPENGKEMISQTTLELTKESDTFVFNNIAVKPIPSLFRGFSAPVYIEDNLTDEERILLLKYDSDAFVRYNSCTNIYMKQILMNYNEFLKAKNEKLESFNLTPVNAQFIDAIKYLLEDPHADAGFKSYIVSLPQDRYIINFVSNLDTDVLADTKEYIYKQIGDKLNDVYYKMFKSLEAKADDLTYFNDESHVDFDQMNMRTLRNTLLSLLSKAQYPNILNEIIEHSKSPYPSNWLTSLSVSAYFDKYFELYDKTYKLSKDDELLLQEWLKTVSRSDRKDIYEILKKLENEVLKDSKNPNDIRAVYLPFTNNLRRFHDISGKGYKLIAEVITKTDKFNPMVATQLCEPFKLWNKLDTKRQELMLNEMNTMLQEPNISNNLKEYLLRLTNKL
Type: biochemical
Conditions: read-out: Ki (nM) PfA-M1; P1' derivatives; assays at 8 inhibitor concentrations spanning 0.3 30 μM

Row | SMILES | Ki [nM]
1 | N[C@H](Cc1ccccc1)[C@H](O)C(=O)N[C@@H](Cc1ccc2ccccc2c1)C(=O)O [compound 5, PheNaphOH] | > 30000
2 | N[C@H](Cc1ccccc1)[C@H](O)C(=O)N[C@@H](Cc1ccc(-c2ccccc2)cc1)C(=O)O [compound 6, PheBipOH] | > 30000
